Experimental data published in a melting point compilation (Tetko et al.; mined from patent text by program, amines drawn as free bases though some values may be those of a salt).

Row | Structure (SMILES) | melting point [°C]
1 | CCc1nc(N)nc(N)c1-c1ccc(NCCc2ccccc2)c([N+](=O)[O-])c1 | 222 to 225
2 | COC(=O)c1cnc(OC)c(N)c1 | 108 to 109
3 | NC(=O)C1CCN(C(c2ccccc2)c2ccccc2)CC1 | 150
4 | O=C1CC2(SCCS2)C(=O)N1 | 112 to 115
5 | CCCCCCCCCCCCSc1nnn[nH]1 | 85 to 87
6 | Cc1nc(-c2ccc(Cl)cc2)nn1CCC=O | 108 to 109
7 | O=CCc1ccc2c(c1[N+](=O)[O-])C(=O)c1ccccc1C2=O | 192
8 | c1ccc2c(c1)Cn1c(cc3ccccc31)CN2 | 176 to 177
9 | Cc1ccccc1NC(=O)CN1C[C@@H](C)N(S(=O)(=O)c2cccc(N)c2)[C@@H](C)C1 | 202 to 203
10 | COC(=O)c1ccc2c(c1CBr)OCO2 | 56 to 58
11 | O=C(O)C(=O)c1ccc2c(c1)OCO2 | 144 to 146
12 | CC(C)=CCCC(C)=CCCC(C)=CCCC1(C)CCc2c(C)c(O)c(C)c(C)c2O1 (stereo unspecified) | 25 to 28
13 | CC(C)(CO)NC(=O)c1nn(-c2ccc(Cl)cc2F)c2c1C1CCC2C1 (stereo unspecified) | 158 to 160
14 | Cc1ccc(S(=O)(=O)OC[C@H]2CCc3ccc4ccccc4c3O2)cc1 | 107 to 111
15 | CCCSc1nc2c(cc1C#N)C(=O)CC(C)(C)C2 | 100 to 102
16 | Cc1ccc(S(=O)(=O)OCC2Cn3c(nc4c(C)cccc43)-c3cccc(Cl)c3O2)cc1 (stereo unspecified) | 168 to 169
17 | COc1ccc(CN(C)CCCc2ccc(NC(=O)c3cccc4c(=O)c5cccc(F)c5[nH]c34)cc2)cc1OC | 158
18 | O=C(Cc1ccc(O)cc1)c1c(O)cc(O)cc1O | 259
19 | COc1ccc(C2=C(c3c[nH]c4ccccc34)C(=O)NC2=O)cc1OC | 210
20 | O=[N+]([O-])C=C1CN=C(c2ccccc2F)c2cc(Cl)ccc2N1 | 170 to 172
21 | CCNc1ccc2ccccc2c1-c1c(P(c2ccccc2)c2ccccc2)ccc2ccccc12 | 83.1
22 | O=c1[nH]c2cc(Cl)ccc2c(O)c1Sc1ccccc1Br | > 300

Row | Structure (SMILES) | melting point [°C]
23 | COCCNC(=O)c1cccc(-c2cccc3cc(COc4cc(C(F)(F)F)ccn4)sc23)c1 | 186 to 187
24 | CON=C(C(=O)OC)c1ccccc1COc1ccc(C(C)=NOCc2ccccc2)cc1 | 104 to 106
25 | CC(=Cc1ccc(F)cc1)CNC(=O)c1ccc(F)cc1 | 107 to 109
26 | COc1ccc(C(=O)c2cc(Br)c(OC)cc2OC)c(F)c1 | 114 to 115
27 | CN(C)[C@H]1CCC[C@H]1C(=O)O (relative stereo) | 82 to 84
28 | CCOC(C)Oc1ccc2c(c1C=O)OCO2 (stereo unspecified) | 48 to 50
29 | FC(F)(F)c1ccc(-c2nccc(Oc3cccc(C(F)(F)F)c3)n2)cc1 | 66 to 67
30 | CN1CCC(Sc2ccc3[nH]c(=O)n(C)c3c2)CC1 | 196 to 198
31 | CC(=O)Oc1ccc2nc(C#N)nc(Cl)c2c1 | 145 to 147
32 | COc1ccc(-c2cc(C(F)(F)F)n3ncc(-c4ccncc4)c3n2)cc1 | 244
33 | CN(C)c1ccc(C(=O)Nc2cc(C(=O)NCc3ccccc3)ccn2)cc1 | 160 to 165
34 | CS(=O)(=O)c1cccc(-n2ccc(=O)c(-c3ccnn3-c3ccccc3)n2)c1 | 199 to 200
35 | COc1ccccc1-c1ccccc1C1=NC(C)(C)CO1 | 129 to 131
36 | CCOc1ncnc2c(N3CCOCC3)nc(N3CCNCC3)nc12 | 168 to 170
37 | S=C1CNCCN1Cc1ccccc1 | 70 to 73
38 | COc1ccccc1N1CCN(C(=S)Nc2nc3ccccc3nc2OC)CC1 | 160 to 162
39 | COc1ccc2[nH]cc(CC(C)(C)[N+](=O)[O-])c2c1 | 83 to 85
40 | CC(=O)Nc1cccc(-c2nc3n(n2)CCc2ccccc2-3)c1 | 225 to 226
41 | COc1ccnc(CCc2nc3c(C)cc(C)nc3[nH]2)c1 | 176 to 178
42 | CC(C)(C)OC(=O)[C@@H]1CC[C@H](c2ccccc2)N1C(=O)CNC(=O)Nc1cccc(CC(=O)O)c1 | 112
43 | COc1ccc2c(c1)CCC([C@@H]1CC[C@H](O)[C@@]1(C)CC(=O)O)C2 (stereo partly specified) | 142
44 | CC1(C)CCC(C)(C)c2cc(-c3c[nH]c(C=O)c3)ccc21 | 211 to 212

More lines, now with the values ahead:

Row | melting point [°C] | Structure (SMILES)
45 | 143 to 145 | CCOC(=O)c1cn2c(Cl)cccc2n1
46 | 199 to 200 | COc1cccc(Sc2c(O)c3ccc(Cl)cc3[nH]c2=O)c1
47 | 195 to 196 | COc1ccc2c(c1)C(CC(=O)O)=C(C)C2=Cc1ccc(SC)cc1
48 | 155 to 156 | COc1ccc(S(=O)(=O)Nc2cccc3cn[nH]c23)cc1
49 | 197 to 200 | Cn1cnc(=S)c(-c2cccc(C(F)(F)F)c2)c1
50 | 274 to 276 | COc1c(O)cnc(C)c1C
51 | 77 to 79 | C=C=Cn1c(C)c(C)c2cnnc(OCc3ccccc3)c21
52 | 263 to 264 | O=C(O)C=c1sc2n(c1=O)Cc1ccccc1N=2
53 | 235 to 236 | CN1C(=O)C(C)(C)Oc2c(C(=O)O)cc(Cl)cc21
54 | < 50 | Nc1ccc2oc(Cc3ccccc3)cc2c1
55 | 85 to 87 | CCCN1CCO[C@@H]2c3cc(C(=O)N(C)C)ccc3CC[C@H]21 (relative stereo)
56 | 116 to 120 | CCSc1nc(C(C)(C)C)c[nH]1
57 | 161 to 163 | CCCCc1ncc(/C=C(/C(=O)O)C(CCCC)c2cccs2)n1Cc1ccccc1Cl (stereo unspecified)
58 | 156 | O=C(c1ccccc1)N(CCN1CCC(Nc2nc3ccccc3n2Cc2ccc(F)cc2)CC1)c1nccs1
59 | > 250 | O=C(O)Cn1c(-c2ccc(F)cc2)nc2cccnc21
60 | 251 | CC(C)(C)C1=C(C#N)C(c2cccc(C#N)c2Br)c2c[nH]nc2N1 (stereo unspecified)

Row | melting point [°C] | Structure (SMILES)
61 | 98 to 100 | CCOC(=O)c1cc(C(=O)c2ccc(C)cc2)n(C)c1C
62 | 121 to 125 | NS(=O)(=O)c1cc2c(cc1Cl)C(=O)NC2=O
63 | 139 to 141 | O=CNc1ccc(-c2cc[nH]n2)cc1
64 | 111 to 112 | COc1cc(C(=O)CS(C)(=O)=O)cc(OC)c1N(C)C
65 | 117 to 118 | CC(=O)OCc1ccc(Sc2ccccc2C(=O)N(C)C)c([N+](=O)[O-])c1
66 | 196 to 200 | O=C(O)c1ccc(Sc2ccc(O)cc2)cc1
67 | 233 to 235 | COC(=O)C1Cc2c([nH]c3ccccc23)C(c2ccc(O)cc2)N1 (stereo unspecified)
68 | 117 to 122 | COC(=O)C(=O)NS(=O)(=O)Cc1ccccc1
69 | 71 to 73 | CCCCn1c(NCCC)nc2ccc(Br)cc2c1=O
70 | 106 to 108 | COP(=O)(CNC(=O)[C@H](C)NC(=O)[C@H](C)NC(=O)OCc1ccccc1)OC
71 | 187 to 190 | O=c1ccnc(NCCN(Cc2ccccc2)c2ccccn2)[nH]1
72 | 63 to 65 | O=C(NCCOCCO[N+](=O)[O-])c1cncs1
73 | 115 to 116 | Cc1c2c(c(Cc3ccc(C(C)C)cc3)c(C)c1NCc1ccccc1)OCC2
74 | 105 to 107 | CC(=O)OC(c1ccccc1S(N)(=O)=O)C(C)F (stereo unspecified)
75 | 50 to 51 | CCOC(=O)c1ccc(OCCSc2ccccc2)cc1
76 | 62 to 65 | CC(C)(C)OCCOc1cc(NC(=O)OC(C)(C)C)c(NC(=O)CC(=O)c2cccc(-n3ccnc3)c2)cc1C#Cc1ccc(F)cc1
